According to ChEMBL document CHEMBL1165957, “Alkaloids from the bark of Guatteria hispida and their evaluation as antioxidant and antimicrobial agents” (2010):
≈ marks a conversion by molar mass, not a printed value. Calls of active or inactive are those of the source. The rule behind the calls is not given here.

How the values were obtained:
Assay type in all cases: functional
[1] = Antioxidant activity assessed as trolox equivalents of peroxyl radical scavenging activity by ORAC assay; set-up: unit not given here
Kocuria rhizophila = assay: Antimicrobial activity against Kocuria rhizophila ATCC 9341 by broth dilution method
[2] = system: Staphylococcus epidermidis; assay: Antimicrobial activity against Staphylococcus epidermidis 6ep by broth dilution method
Pseudomonas aeruginosa = assay: Antimicrobial activity against Pseudomonas aeruginosa ATCC 27853 by broth dilution method
Staphylococcus aureus [3] = assay: Antimicrobial activity against Staphylococcus aureus ATCC 14458 by broth dilution method
Escherichia coli = assay: Antimicrobial activity against Escherichia coli ATCC 10538 by broth dilution method
Staphylococcus aureus [4] = assay: Antimicrobial activity against Staphylococcus aureus 7+ penicillinase positive + by broth dilution method
Staphylococcus aureus [5] = assay: Antimicrobial activity against Staphylococcus aureus 8- penicillinase negative by broth dilution method
Nakaseomyces glabratus = assay: Antimicrobial activity against Candida glabrata ATCC 30070 by broth dilution method
Candida dubliniensis [6] = assay: Antimicrobial activity against Candida dubliniensis ATCC 777 by broth dilution method
Candida albicans = assay: Antimicrobial activity against Candida albicans ATCC 10231 by broth dilution method
Candida dubliniensis [7] = assay: Antimicrobial activity against Candida dubliniensis ATCC 778157 by broth dilution method
Candida parapsilosis = assay: Antimicrobial activity against Candida parapsilosis ATCC 22019 by broth dilution method
Candida tropicalis = assay: Antimicrobial activity against Candida tropicalis CT by broth dilution method

With `COc1cc2c(cc1O)C[C@H]1c3cc(O)c(OC)cc3CCN1C2` the Activity [1] was 1.4.
In the case of `COc1cc2c(cc1O)C[C@H]1c3cc(OC)c(O)cc3CCN1C2`, the Activity [1] was 1.67.
In the case of `COc1cc2c3c(c1OC)-c1ccccc1CC3NCC2` (configuration not stated), the Activity [1] was 0.27.
In the case of `COc1ccc2c(c1)C(=O)c1nccc3c(O)c(OC)c(OC)c-2c13`, the Activity [1] was 1.62.
With `O=C(O)/C=C/c1ccc(O)c(O)c1` the Activity [1] was 2.95.
Compound `O=c1c(O)c(-c2ccc(O)c(O)c2)oc2cc(O)cc(O)c12` has an Activity [1] of 5.62.
`O=c1c(O[C@@H]2O[C@H](CO)[C@@H](O)[C@H](O)[C@H]2O)c(-c2ccc(O)c(O)c2)oc2cc(O)cc(O)c12` gave an Activity [1] of 5.25.
Compound `O=C(N[C@H](CO)[C@H](O)c1ccc([N+](=O)[O-])cc1)C(Cl)Cl` [CHLORAMPHENICOL] has an MIC (Kocuria rhizophila) of 50 µg/mL (≈ 155 µM), an MIC [2] of 50 µg/mL (≈ 155 µM) and an MIC (Pseudomonas aeruginosa) of 850 µg/mL (≈ 2630 µM). For the same compound, the MIC (Staphylococcus aureus [3]) was 25 µg/mL (≈ 77.4 µM), the MIC (Escherichia coli) was 50 µg/mL (≈ 155 µM) and the MIC (Staphylococcus aureus [4]) was 25 µg/mL. The MIC (Staphylococcus aureus [5]) was 25 µg/mL (≈ 77.4 µM).
For `COc1c(OC)c2c3c(nccc3c1OC)C(=O)c1ccccc1-2` [HOMOMOSCHATOLINE], the MIC (Kocuria rhizophila) was “inactive”, the MIC [2] was 25 µg/mL (≈ 77.8 µM) and the MIC (Pseudomonas aeruginosa) was “inactive”. The MIC (Nakaseomyces glabratus) was “inactive”, the MIC (Staphylococcus aureus [3]) was “inactive” and the MIC (Candida dubliniensis [6]) was 12.5 µg/mL (≈ 38.9 µM). For the same compound, the MIC (Candida albicans) was “inactive”, the MIC (Candida dubliniensis [7]) was 25 µg/mL (≈ 77.8 µM) and the Activity [1] was 0.5. The MIC (Escherichia coli) was “inactive”, the MIC (Candida parapsilosis) was “inactive” and the MIC (Staphylococcus aureus [4]) was “inactive”. For the same compound, the MIC (Candida tropicalis) was “inactive” and the MIC (Staphylococcus aureus [5]) was “inactive”.
`CC(=O)N1CCN(c2ccc(OCC3COC(Cn4ccnc4)(c4ccc(Cl)cc4Cl)O3)cc2)CC1` (configuration not stated) [KETOCONAZOLE] showed an MIC (Nakaseomyces glabratus) of 12.5 µg/mL (≈ 23.5 µM), an MIC (Candida dubliniensis [6]) of 12.5 µg/mL (≈ 23.5 µM) and an MIC (Candida albicans) of 12.5 µg/mL (≈ 23.5 µM). For the same compound, the MIC (Candida dubliniensis [7]) was 12.5 µg/mL (≈ 23.5 µM), the MIC (Candida parapsilosis; Lodderomyces parapsilosis) was 12.5 µg/mL (≈ 23.5 µM) and the MIC (Candida tropicalis) was 12.5 µg/mL (≈ 23.5 µM).
In the case of `O=C1c2ccccc2-c2c3c(cc4ccnc1c24)OCO3` [LIRIODENINE], the MIC (Kocuria rhizophila) was “inactive”, the MIC [2] was 50 µg/mL (≈ 182 µM) and the MIC (Pseudomonas aeruginosa) was “inactive”. The MIC (Nakaseomyces glabratus) was “inactive”, the MIC (Staphylococcus aureus [3]) was “inactive” and the MIC (Candida dubliniensis [6]) was 50 µg/mL (≈ 182 µM). The MIC (Candida albicans) was “inactive”, the MIC (Candida dubliniensis [7]) was 100 µg/mL (≈ 363 µM) and the Activity [1] was 0.3. For the same compound, the MIC (Escherichia coli) was “inactive”, the MIC (Candida parapsilosis) was “inactive” and the MIC (Staphylococcus aureus [4]) was “inactive”. The MIC (Candida tropicalis) was “inactive” and the MIC (Staphylococcus aureus [5]) was “inactive”.
With `COc1cc2ccnc3c2c(c1OC)-c1ccccc1C3=O` [LYSICAMINE] the MIC (Kocuria rhizophila) was “inactive”, the MIC [2] was 50 µg/mL (≈ 172 µM) and the MIC (Pseudomonas aeruginosa) was “inactive”. For the same compound, the MIC (Nakaseomyces glabratus) was “inactive”, the MIC (Staphylococcus aureus [3]) was “inactive” and the MIC (Candida dubliniensis [6]) was 100 µg/mL (≈ 343 µM). The MIC (Candida albicans) was “inactive”, the MIC (Candida dubliniensis [7]) was 100 µg/mL (≈ 343 µM) and the Activity [1] was 0.86. The MIC (Escherichia coli) was “inactive”, the MIC (Candida parapsilosis) was “inactive” and the MIC (Staphylococcus aureus [4]) was “inactive”. The MIC (Candida tropicalis) was “inactive” and the MIC (Staphylococcus aureus [5]) was “inactive”.
